Activity calls are given as the source filed them. The rule behind the calls is not given here.
Key:
[1] = Neurotoxicity in ip dosed Swiss albino mouse assessed as maximum tolerated dose after 4 hrs by rotorod test; assay type: toxicity, organism-based; details: in vivo
Mus musculus [2] = test: Anticonvulsant activity in ip dosed Swiss albino mouse assessed as protection against maximal electroshock-induced seizures after 0.5 hrs; assay type: functional; details: read-out: MED
Mus musculus [3] = test: Anticonvulsant activity in ip dosed Swiss albino mouse assessed as protection against subcutaneous pentylenetetrazole-induced seizures after 0.5 hrs; assay type: functional; details: read-out: MED
Mus musculus [4] = test: Anticonvulsant activity in ip dosed Swiss albino mouse assessed as protection against maximal electroshock-induced seizures after 4 hrs; assay type: functional; details: read-out: MED
Mus musculus [5] = test: Anticonvulsant activity in ip dosed Swiss albino mouse assessed as protection against subcutaneous pentylenetetrazole-induced seizures after 4 hrs; assay type: functional; details: read-out: MED
[6] = Neurotoxicity in ip dosed Swiss albino mouse assessed as maximum tolerated dose after 0.5 hrs by rotorod test; assay type: toxicity, organism-based; details: in vivo
Mus musculus [7] = test: Neurotoxicity in Swiss albino mouse assessed as motor impairment at 300 mg/kg, ip after 4 hrs by rotorod test; assay type: toxicity, organism-based; design: dose 300 mg/kg, route intraperitoneal; details: in vivo
Mus musculus [8] = test: Anticonvulsant activity in Swiss albino mouse assessed as protection against subcutaneous pentylenetetrazole-induced seizures at 300 mg/kg, ip after 4 hrs; assay type: functional, organism-based; design: dose 300 mg/kg
Mus musculus [9] = test: Anticonvulsant activity in Swiss albino mouse assessed as protection against subcutaneous pentylenetetrazole-induced seizures at 300 mg/kg, ip after 0.5 hrs; assay type: functional, organism-based; design: dose 300 mg/kg
Mus musculus [10] = test: Neurotoxicity in Swiss albino mouse assessed as motor impairment at 300 mg/kg, ip after 0.5 hrs by rotorod test; assay type: toxicity, organism-based; design: dose 300 mg/kg, route intraperitoneal; details: in vivo
Mus musculus [11] = test: Anticonvulsant activity in Swiss albino mouse assessed as protection against maximal electroshock-induced seizures at 300 mg/kg, ip after 4 hrs; assay type: functional, organism-based; design: dose 300 mg/kg
Rattus norvegicus [12] = test: Anticonvulsant activity in Wistar rat assessed as protection against maximal electroshock-induced seizures at 30 mg/kg, po after 0.25 hrs; assay type: functional
Rattus norvegicus [13] = test: Anticonvulsant activity in Wistar rat assessed as protection against maximal electroshock-induced seizures at 30 mg/kg, po after 4 hrs; assay type: functional
Rattus norvegicus [14] = test: Anticonvulsant activity in Wistar rat maximal electroshock-induced seizures model assessed as time spend in hind leg tonic extensor phase at 30 mg/kg, po after 1 hr relative to control; assay type: functional
Rattus norvegicus [15] = test: Anticonvulsant activity in Wistar rat assessed as protection against maximal electroshock-induced seizures at 30 mg/kg, po after 2 hrs; assay type: functional
Rattus norvegicus [16] = test: Anticonvulsant activity in Wistar rat assessed as protection against maximal electroshock-induced seizures at 30 mg/kg, po after 0.5 hrs; assay type: functional
Rattus norvegicus [17] = test: Anticonvulsant activity in Wistar rat maximal electroshock-induced seizures model assessed as time spend in hind leg tonic extensor phase at 30 mg/kg, po after 2 hrs relative to control; assay type: functional
Rattus norvegicus [18] = test: Anticonvulsant activity in Wistar rat maximal electroshock-induced seizures model assessed as time spend in hind leg tonic extensor phase at 30 mg/kg, po after 4 hrs relative to control; assay type: functional
Rattus norvegicus [19] = test: Anticonvulsant activity in Wistar rat maximal electroshock-induced seizures model assessed as time spend in hind leg tonic extensor phase at 30 mg/kg, po after 0.5 hrs relative to control; assay type: functional
Rattus norvegicus [20] = test: Neurotoxicity in Wistar rat assessed as motor impairment at 30 mg/kg, po by rotorod test; assay type: toxicity, organism-based; design: dose 30 mg/kg, route oral; details: in vivo
Rattus norvegicus [21] = test: Anticonvulsant activity in Wistar rat maximal electroshock-induced seizures model assessed as time spend in hind leg tonic extensor phase at 30 mg/kg, po after 0.25 hrs relative to control; assay type: functional
Rattus norvegicus [22] = test: Anticonvulsant activity in Wistar rat assessed as protection against maximal electroshock-induced seizures at 30 mg/kg, po after 1 hr; assay type: functional
Mus musculus [23] = test: Anticonvulsant activity in Swiss albino mouse assessed as protection against maximal electroshock-induced seizures at 300 mg/kg, ip after 0.5 hrs; assay type: functional, organism-based; design: dose 300 mg/kg

| SMILES | MTD at 4 h [1] | minimal effective dose (Mus musculus [2]) | minimal effective dose (Mus musculus [3]) | minimal effective dose (Mus musculus [4]) | minimal effective dose (Mus musculus [5]) | Activity (Mus musculus [7]) | Activity (Mus musculus [8]) | Activity (Mus musculus [10]) | Activity (Mus musculus [11]) | Activity (Rattus norvegicus [12]) | Activity (Rattus norvegicus [13]) | Time (Rattus norvegicus [14]) | Activity (Rattus norvegicus [15]) | Activity (Rattus norvegicus [16]) | Time (Rattus norvegicus [17]) | Time (Rattus norvegicus [18]) | Time (Rattus norvegicus [19]) | Activity (Rattus norvegicus [20]) | Time (Rattus norvegicus [21]) | Activity (Rattus norvegicus [22]) | further results |
| --- | --- | --- | --- | --- | --- | --- | --- | --- | --- | --- | --- | --- | --- | --- | --- | --- | --- | --- | --- | --- | --- |
| O=C(N/N=C/c1ccccc1)Nc1ccc(-n2c(-c3ccccc3)nc3c(Br)cc(Br)cc3c2=O)cc1 | 300 mg/kg | 100 mg/kg | 300 mg/kg | 300 mg/kg | 300 mg/kg | – | – | – | – | – | – | – | – | – | – | – | – | – | – | – | MTD at 0.5 h [6]: 100 mg/kg |
| Cc1nc2c(Br)cc(Br)cc2c(=O)n1-c1ccc(NC(=O)N/N=C/c2cccc([N+](=O)[O-])c2)cc1 | – | 100 mg/kg | 300 mg/kg | 300 mg/kg | – | Non-toxic | inactive | – | – | – | – | – | – | – | – | – | – | – | – | – | MTD at 0.5 h [6]: 300 mg/kg |
| Cc1nc2c(Br)cc(Br)cc2c(=O)n1-c1ccc(NC(=O)N/N=C/c2ccc([N+](=O)[O-])cc2)cc1 | 300 mg/kg | 100 mg/kg | – | – | 300 mg/kg | – | – | Non-toxic | inactive | – | – | – | – | – | – | – | – | – | – | – | Activity (Mus musculus [9]): inactive |
| O=C1NC(=O)C(c2ccccc2)(c2ccccc2)N1 [PHENYTOIN] | – | 30 mg/kg | – | 30 mg/kg | – | – | inactive | – | – | 25% | 75% | 2.63 s | 75% | 100% | 1.88 s | 1.38 s | 0 s | Non-toxic | 7.13 s | 75% | Activity (Mus musculus [9]): inactive |
| COc1cc(/C=N/NC(=O)Nc2ccc(-n3c(-c4ccccc4)nc4c(Br)cc(Br)cc4c3=O)cc2)ccc1O | 300 mg/kg | 100 mg/kg | 300 mg/kg | 300 mg/kg | – | – | inactive | – | – | – | – | – | – | – | – | – | – | – | – | – | MTD at 0.5 h [6]: 100 mg/kg |
| O=C(N/N=C/c1ccc(O)cc1)Nc1ccc(-n2c(-c3ccccc3)nc3c(Br)cc(Br)cc3c2=O)cc1 | 300 mg/kg | 30 mg/kg | 300 mg/kg | 300 mg/kg | 300 mg/kg | – | – | Non-toxic | – | 0% | 50% | 12 s | 25% | 0% | 9 s | 6.5 s | 12.38 s | Non-toxic | 12.5 s | 0% | – |
| CCC1(C)CC(=O)NC1=O (configuration not stated) [ETHOSUXIMIDE] | – | – | 100 mg/kg | – | 300 mg/kg | Non-toxic | – | Non-toxic | inactive | – | – | – | – | – | – | – | – | – | – | – | Activity (Mus musculus [23]): inactive |
| Cc1nc2c(Br)cc(Br)cc2c(=O)n1-c1ccc(NC(=O)N/N=C/c2ccc(N(C)C)cc2)cc1 | 300 mg/kg | 30 mg/kg | 100 mg/kg | 30 mg/kg | 300 mg/kg | – | – | – | – | 25% | 100% | 1.38 s | 100% | 75% | 0 s | 0 s | 2.88 s | Non-toxic | 8.38 s | 88% | MTD at 0.5 h [6]: 300 mg/kg |
| O=C(N/N=C/c1ccc([N+](=O)[O-])cc1)Nc1ccc(-n2c(-c3ccccc3)nc3c(Br)cc(Br)cc3c2=O)cc1 | – | – | 300 mg/kg | – | – | – | inactive | – | inactive | – | – | – | – | – | – | – | – | – | – | – | Activity (Mus musculus [23]): inactive |
| O=C(N/N=C/c1ccc(Cl)cc1)Nc1ccc(-n2c(-c3ccccc3)nc3c(Br)cc(Br)cc3c2=O)cc1 | – | – | – | – | – | – | inactive | – | inactive | – | – | – | – | – | – | – | – | – | – | – | Activity (Mus musculus [23]): inactive; Activity (Mus musculus [9]): inactive |
| Cc1nc2c(Br)cc(Br)cc2c(=O)n1-c1ccc(NC(=O)N/N=C/c2ccc(O)cc2)cc1 | – | 30 mg/kg | 100 mg/kg | 30 mg/kg | 300 mg/kg | Non-toxic | – | Non-toxic | – | 25% | 100% | 1.25 s | 100% | 75% | 0 s | 0 s | 2.38 s | Non-toxic | 6.63 s | 88% | – |
| Cc1nc2c(Br)cc(Br)cc2c(=O)n1-c1ccc(NC(=O)N/N=C/c2ccccc2)cc1 | – | 100 mg/kg | 300 mg/kg | 300 mg/kg | – | Non-toxic | inactive | Non-toxic | – | – | – | – | – | – | – | – | – | – | – | – | – |
| Cc1nc2c(Br)cc(Br)cc2c(=O)n1-c1ccc(NC(=O)N/N=C/c2ccc(Cl)cc2)cc1 | – | 300 mg/kg | – | – | – | – | inactive | – | inactive | – | – | – | – | – | – | – | – | – | – | – | Activity (Mus musculus [9]): inactive |
| COc1cc(/C=N/NC(=O)Nc2ccc(-n3c(C)nc4c(Br)cc(Br)cc4c3=O)cc2)ccc1O | – | 30 mg/kg | 100 mg/kg | 100 mg/kg | 300 mg/kg | Non-toxic | – | Non-toxic | – | 0% | 0% | 9.5 s | 0% | 50% | 12.38 s | 12.25 s | 5.88 s | Non-toxic | 12.88 s | 25% | – |
| O=C(N/N=C/c1cccc([N+](=O)[O-])c1)Nc1ccc(-n2c(-c3ccccc3)nc3c(Br)cc(Br)cc3c2=O)cc1 | – | – | – | – | 300 mg/kg | – | – | – | inactive | – | – | – | – | – | – | – | – | – | – | – | Activity (Mus musculus [23]): inactive; Activity (Mus musculus [9]): inactive |
| CN(C)c1ccc(/C=N/NC(=O)Nc2ccc(-n3c(-c4ccccc4)nc4c(Br)cc(Br)cc4c3=O)cc2)cc1 | – | 100 mg/kg | 100 mg/kg | 300 mg/kg | 300 mg/kg | Non-toxic | – | Non-toxic | – | 0% | 0% | 7.5 s | 0% | 13% | 11.63 s | 11.88 s | 10.75 s | Non-toxic | 12.75 s | 38% | – |
